Among the data in ChEMBL document CHEMBL1909046, “DrugMatrix in vitro pharmacology data” are IC50 and Ki values, retold here.

One may read the IC50 as the concentration that gives 50% inhibition. As usually defined, the Ki is the dissociation constant of the complex between target and ligand, obtained from inhibition or displacement.

Each structure is given as a SMILES string.

The nature of assay [1]: DRUGMATRIX: beta-Lactamase enzyme inhibition (substrate: Nitrocefin). Also noted: species or system Bacillus cereus. Particulars: Not Active = under 50% inhibition at 10 µM.
Assay [2] in a line: DRUGMATRIX: Serotonin (5-Hydroxytryptamine) 5-HT3 radioligand binding (ligand: [3H] GR-65630). Particulars: hek293; Not Active = under 50% inhibition at 10 µM. The assay is classed as cell membranes, Membrane.
Assay [3] addresses T1, C-C chemokine receptor type 4 (Homo sapiens, UniProt P51679).
T1 sequence (P51679 whole entry): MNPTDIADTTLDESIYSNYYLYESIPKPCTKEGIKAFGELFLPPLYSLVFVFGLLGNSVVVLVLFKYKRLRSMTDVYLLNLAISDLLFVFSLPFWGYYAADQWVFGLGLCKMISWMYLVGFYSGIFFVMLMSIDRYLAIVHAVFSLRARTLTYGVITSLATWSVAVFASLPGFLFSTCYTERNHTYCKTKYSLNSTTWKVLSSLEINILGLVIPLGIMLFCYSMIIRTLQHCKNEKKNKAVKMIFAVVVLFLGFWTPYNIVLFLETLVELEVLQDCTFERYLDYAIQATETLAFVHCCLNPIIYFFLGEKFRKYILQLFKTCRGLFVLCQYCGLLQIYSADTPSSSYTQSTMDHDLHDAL
The assay is classed as cell membranes, Chem-1, Membrane. As to conditions: chem-1.

Assay [4] addresses T2, Cholecystokinin receptor type A (Homo sapiens, UniProt P32238).
T2 sequence (P32238 whole entry): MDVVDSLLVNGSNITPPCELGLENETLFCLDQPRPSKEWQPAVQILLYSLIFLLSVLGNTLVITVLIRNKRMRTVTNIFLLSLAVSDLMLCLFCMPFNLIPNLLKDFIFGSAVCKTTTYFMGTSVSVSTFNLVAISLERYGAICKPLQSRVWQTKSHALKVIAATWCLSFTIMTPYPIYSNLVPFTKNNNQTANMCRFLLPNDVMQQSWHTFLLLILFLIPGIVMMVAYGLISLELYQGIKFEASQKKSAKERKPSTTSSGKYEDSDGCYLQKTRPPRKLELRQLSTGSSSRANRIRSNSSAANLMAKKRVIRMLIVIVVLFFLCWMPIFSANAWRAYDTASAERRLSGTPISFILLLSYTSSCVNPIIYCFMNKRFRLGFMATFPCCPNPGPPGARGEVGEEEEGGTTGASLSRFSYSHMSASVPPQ
Type of assay: cell membranes, Membrane. Particulars: 1321-n1.

Assay [5] addresses T3, Neuropeptide Y receptor type 1 (Homo sapiens, UniProt P25929).
T3 sequence (P25929 whole entry): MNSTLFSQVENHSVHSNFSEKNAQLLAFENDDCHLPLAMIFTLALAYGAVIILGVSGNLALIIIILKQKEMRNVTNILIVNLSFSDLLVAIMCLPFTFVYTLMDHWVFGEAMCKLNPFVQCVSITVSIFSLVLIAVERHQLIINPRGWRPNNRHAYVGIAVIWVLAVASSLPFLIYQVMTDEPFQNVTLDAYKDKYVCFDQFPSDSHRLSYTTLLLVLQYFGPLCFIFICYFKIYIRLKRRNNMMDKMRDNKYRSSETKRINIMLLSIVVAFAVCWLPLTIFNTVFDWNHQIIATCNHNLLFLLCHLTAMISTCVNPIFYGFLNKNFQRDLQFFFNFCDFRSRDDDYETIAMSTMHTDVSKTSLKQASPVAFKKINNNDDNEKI
The assay is classed as cell membranes, Membrane. As to conditions: sk-n-mc.

Assay [6] concerns the target Platelet-activating factor receptor (Homo sapiens, UniProt P25105). Type of assay: tissue-based. Further: in other assays of this panel Not Active means under 50% inhibition at 10 µM.
The target of assay [7] is Protein phosphatase 3 catalytic subunit alpha (Homo sapiens, UniProt Q08209). Also noted: species or system Escherichia coli.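 Further: inhibition of calcineurin (PP2B) enzyme activity, measured with DiFMUP as the substrate; in other assays of this panel Not Active means under 50% inhibition at 10 µM.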
The next assay has as its target T4, Adenosine receptor A1 (Homo sapiens, UniProt P30542).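 Further: radioligand binding assay at the adenosine A1 receptor, with DPCPX serving as the labelled ligand; in other assays of this panel Not Active means under 50% inhibition at 10 µM.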
T4 sequence (P30542 whole entry): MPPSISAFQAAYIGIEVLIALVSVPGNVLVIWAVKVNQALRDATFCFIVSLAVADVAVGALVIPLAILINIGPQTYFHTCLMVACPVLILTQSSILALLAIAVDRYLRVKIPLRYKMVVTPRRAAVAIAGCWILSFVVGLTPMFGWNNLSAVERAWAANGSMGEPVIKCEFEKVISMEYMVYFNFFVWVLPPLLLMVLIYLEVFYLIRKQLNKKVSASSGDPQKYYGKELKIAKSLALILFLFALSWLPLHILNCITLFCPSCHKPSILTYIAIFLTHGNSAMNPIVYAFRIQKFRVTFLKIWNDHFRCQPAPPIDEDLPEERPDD
The assay is classed as cell membranes, CHO, Membrane.

Platelet-activating factor receptor, sequence (P25105 whole entry): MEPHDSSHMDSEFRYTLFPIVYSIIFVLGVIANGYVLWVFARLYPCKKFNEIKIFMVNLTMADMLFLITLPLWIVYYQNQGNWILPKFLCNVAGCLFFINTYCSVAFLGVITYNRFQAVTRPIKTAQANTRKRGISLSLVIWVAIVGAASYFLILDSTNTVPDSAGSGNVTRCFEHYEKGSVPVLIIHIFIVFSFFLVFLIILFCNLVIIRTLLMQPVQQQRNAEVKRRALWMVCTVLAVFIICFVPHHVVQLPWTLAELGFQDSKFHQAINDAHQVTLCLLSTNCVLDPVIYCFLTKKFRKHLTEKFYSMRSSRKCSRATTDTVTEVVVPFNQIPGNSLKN

On to `c1ccc(Cn2ccnc2)cc1`, for which the IC50 result in assay [1], in assay [2], in assay [3], in assay [4], in assay [5] and in assay [6] was “Not Active” in each case. Also, the IC50 result (in assay [7]; against Adenosine receptor A1 (cho)) was “Not Active” each time. The Ki result in assay [1] and in assay [2] was “Not Active” in each case.
Consider `C[N+](C)(C)CCOP(=O)([O-])OC[C@H](O)CO`, for which the IC50 result in assay [1], in assay [2], in assay [3], in assay [4], in assay [5] and in assay [6] was “Not Active” throughout. Further, the IC50 result (in assay [7]; against Adenosine receptor A1 (cho)) was “Not Active” in each case. The Ki result in assay [1] and in assay [2] was “Not Active” each time.
Regarding `NC(=O)CN1CCCC1=O`, the IC50 result in assay [1], in assay [2], in assay [3], in assay [4], in assay [5] and in assay [6] was “Not Active” throughout. Besides, the half-inhibitory concentration (IC50) result (in assay [7]; at Adenosine receptor A1 (cho)) was “Not Active” throughout. Further, the Ki entry in assay [1] and in assay [2] was “Not Active” throughout.
Regarding `OC[C@H]1OC2C3[C@@H](CO)OC(O[C@H]4[C@H](O)[C@@H](O)[C@@H](O[C@H]5[C@H](O)[C@@H](O)[C@@H](O[C@H]6[C@H](O)[C@@H](O)[C@@H](O[C@H]7[C@H](O)[C@@H](O)[C@@H](O[C@H]8[C@H](O)[C@@H](O)[C@@H](O[C@H]9[C@H](O)[C@@H](O)C(OC1[C@H](O)[C@H]2O)O[C@@H]9CO)O[C@@H]8CO)O[C@@H]7CO)O[C@@H]6CO)O[C@@H]5CO)O[C@@H]4CO)[C@H](O)[C@H]3O`, the IC50 result in assay [1], in assay [2], in assay [3], in assay [4], in assay [5] and in assay [6] was “Not Active” throughout. The half-inhibitory concentration (IC50) result (in assay [7]; on Adenosine receptor A1 (cho)) was “Not Active” throughout. For the same compound, the Ki entry in assay [1] and in assay [2] was “Not Active” each time.
For the compound `CN(CCOc1ccc(C[C@H](Nc2ccccc2C(=O)c2ccccc2)C(=O)O)cc1)c1ccccn1`, the IC50 entry in assay [1], in assay [2], in assay [3], in assay [4], in assay [5] and in assay [6] was “Not Active” in each case. Moreover, the concentration for half-maximal inhibition (IC50) result in assay [7] was “Not Active”; at Adenosine receptor A1 (read-out: IC50) it was 15 µM. Besides, the inhibition constant Ki entry was “Not Active” in assay [1], “Not Active” in assay [2] and 8.73 µM on Adenosine receptor A1 (read-out: Ki).
For the compound `O=c1[nH]c2ccccc2c2ccccc12`, the half-inhibitory concentration (IC50) result in assay [1], in assay [2], in assay [3], in assay [4], in assay [5] and in assay [6] was “Not Active” each time. For the same compound, the IC50 entry (in assay [7]; against Adenosine receptor A1 (cho)) was “Not Active” throughout. The inhibitory constant (Ki) entry in assay [1] and in assay [2] was “Not Active” throughout.
As for `CO[C@H]1O[C@@H]2O[C@@]3(C)CC[C@H]4[C@H](C)CC[C@@H]([C@H]1C)[C@@]24OO3`, the concentration for half-maximal inhibition (IC50) result in assay [1], in assay [2], in assay [3], in assay [4], in assay [5] and in assay [6] was “Not Active” in each case. Also, the IC50 result (in assay [7]; at Adenosine receptor A1 (cho)) was “Not Active” throughout. Moreover, the Ki entry in assay [1] and in assay [2] was “Not Active” in each case.
For the compound `Nc1ccc(Cc2ccc(N)cc2)cc1`, the half-maximal inhibitory concentration (IC50) result in assay [1], in assay [2], in assay [3], in assay [4], in assay [5] and in assay [6] was “Not Active” each time. Moreover, the IC50 result (in assay [7]; against Adenosine receptor A1 (cho)) was “Not Active” each time. Also, the inhibition constant Ki result in assay [1] and in assay [2] was “Not Active” throughout.
For `C=C(Cl)Cl` [1,1-DICHLOROETHENE], the IC50 entry in assay [1], in assay [2], in assay [3], in assay [4], in assay [5] and in assay [6] was “Not Active” in each case. For the same compound, the IC50 entry (in assay [7]; against Adenosine receptor A1 (cho)) was “Not Active” each time. Besides, the Ki result in assay [1] and in assay [2] was “Not Active” throughout.
As for `CC(=O)Nc1ccc2c(c1)Cc1ccccc1-2` [2-ACETYLAMINOFLUORENE], the IC50 result in assay [1], in assay [2], in assay [3], in assay [4], in assay [5] and in assay [6] was “Not Active” in each case. Also, the IC50 result (in assay [7]; against Adenosine receptor A1 (cho)) was “Not Active” in each case. Also, the Ki result in assay [1] and in assay [2] was “Not Active” throughout.
Consider `O=C(Nc1ccc(Cl)c(Cl)c1)c1cc(Cl)cc(Cl)c1O` [3,3',4',5-TETRACHLOROSALICYLANILIDE], for which the IC50 result in assay [1], in assay [2], in assay [3], in assay [4], in assay [5] and in assay [6] was “Not Active” in each case. Further, the IC50 entry (in assay [7]; on Adenosine receptor A1 (cho)) was “Not Active” in each case. Also, the Ki result in assay [1] and in assay [2] was “Not Active” each time.
As to `O=C(O)COC(=O)Cc1ccccc1Nc1c(Cl)cccc1Cl` [ACECLOFENAC], the IC50 entry in assay [1], in assay [2], in assay [3], in assay [4], in assay [5] and in assay [6] was “Not Active” each time. The IC50 entry (in assay [7]; on Adenosine receptor A1 (cho)) was “Not Active” throughout. The Ki result in assay [1] and in assay [2] was “Not Active” in each case.
On to `CCN1C[C@]2(COC)[C@H](O)C[C@H](OC)[C@@]34[C@@H]5C[C@@]6(O)[C@H](OC(=O)c7ccccc7)[C@@H]5[C@@](OC(C)=O)([C@@H]([C@H](OC)[C@H]23)[C@@H]14)[C@@H](O)[C@@H]6OC` [ACONITINE], for which the IC50 result in assay [1], in assay [2], in assay [3], in assay [4], in assay [5] and in assay [6] was “Not Active” throughout. The IC50 entry (in assay [7]; at Adenosine receptor A1 (cho)) was “Not Active” each time. The Ki result in assay [1] and in assay [2] was “Not Active” throughout.
For the compound `CCO` [ALCOHOL], the IC50 result in assay [1], in assay [2], in assay [3], in assay [4], in assay [5] and in assay [6] was “Not Active” throughout. Moreover, the IC50 result (in assay [7]; on Adenosine receptor A1 (cho)) was “Not Active” in each case. Further, the inhibitory constant (Ki) result in assay [1] and in assay [2] was “Not Active” each time.
On to `CNC[C@H](O)c1ccc(O)c(O)c1` [EPINEPHRINE], for which the IC50 entry in assay [1], in assay [3], in assay [4], in assay [5], in assay [6] and in assay [7] was “Not Active” each time. The IC50 result at Adenosine receptor A1 (cho) is on record as “Not Active”. In addition, the Ki result in assay [1] was “Not Active”.
